Data from patent publication US11766420B2 (priority 2015, dated 2023).

Test system: HEK293T cells
Settings: human

COc1ncc(-c2ccc3nc(N)n(-c4ccc(N5CCOCC5)cc4)c3c2)cc1S(=O)(=O)Nc1ccccc1F [A1, 5-(2-amino-1-(4-(4-morpholinyl)phenyl)-1H-benzimidazol-6-yl)-N-(2-fluorophenyl)-2-methoxy-3-pyridinesulfonamide]
Concentration that killed most of the cells (MTT): ≥ 250 nM
